In patent publication US20240043439A1, “COMPOUNDS AS C5AR INHIBITORS” (Kira Pharmaceuticals (Suzhou) Ltd., priority 2020, published 2024):

What was measured:
[1] = biological target: human C5a receptor (C5aR) (Homo sapiens (Human), UniProt P21730); test: Inhibition of C5a-C5aR binding (biotinylated human C5a, U937/C5aR cells, FACS)
Outline: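 U937 cells stably expressing human C5aR, 3×10^6 cells/ml in PBS+0.1% BSA, were co-incubated with compound and biotinylated human C5a (30 nM, working solution) on ice for 120 min. Bound ligand was stained with FITC-streptavidin for 30 min on ice and read by flow cytometry.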

C5aR = C5aR (Homo sapiens (Human), UniProt P21730); test: Calcium mobilization (U937/C5aR or HEK293/C5aR cells, FLIPR); type: cell-based; conditions: agonist human C5a at EC80, FLIPR
Outline: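 U937 or HEK293 cells expressing human C5aR, plated overnight, then preincubated 60 min with compound. After Fluo-4 Direct dye loading (50 min at 37 °C, 10 min at room temperature), intracellular calcium rise on FLIPR was triggered by human C5a agonist at EC80.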

Sequence of human C5a receptor (C5aR) (P21730 whole entry): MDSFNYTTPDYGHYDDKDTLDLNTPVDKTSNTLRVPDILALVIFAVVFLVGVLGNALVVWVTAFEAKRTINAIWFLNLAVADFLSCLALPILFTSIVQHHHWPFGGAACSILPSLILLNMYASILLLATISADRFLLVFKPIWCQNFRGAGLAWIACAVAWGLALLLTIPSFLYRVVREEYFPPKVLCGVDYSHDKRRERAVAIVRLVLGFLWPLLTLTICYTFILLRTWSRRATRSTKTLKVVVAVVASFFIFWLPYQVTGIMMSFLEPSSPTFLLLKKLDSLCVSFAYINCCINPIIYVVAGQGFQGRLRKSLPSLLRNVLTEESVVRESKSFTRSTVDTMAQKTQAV
Sequence of C5aR (P21730 whole entry): as above

Row | Structure (SMILES) | IC50 [1] [µM] | IC50 (C5aR) [µM]
1 | Cc1ncc(NC(=O)[C@H]2C[C@H]3CCC[C@H]3N(C(=O)c3c(C)cccc3F)[C@H]2c2ccc(NC3CCCC3)cc2)cn1 (racemic) [Compound 58, cis-2-(4-(cyclopentylamino)phenyl)-1-(2-fluoro-6-methylbenzoyl)-N-(2-methylpyrimidin-5-yl)octahydro-1H-cyclopenta[b]pyridine-3-carboxamide] | 0.05 to 0.5 | 0.05 to 0.5
2 | Cc1ccc(NC(=O)[C@H]2CCCN(c3ncnc4cccnc34)[C@H]2c2ccc(NC3CCCC3)cc2)cc1C(F)(F)F [Compound 161, (2R,3S)-2-(4-(cyclopentylamino)phenyl)-N-(4-methyl-3-(trifluoromethyl)phenyl)-1-(pyrido[3,2-d]pyrimidin-4-yl)piperidine-3-carboxamide] | 0.05 to 0.5 | 2 to 10
3 | Cc1ccc(NC(=O)[C@H]2CCCN(S(=O)(=O)c3cccc4ccccc34)[C@H]2c2ccc(NC3CCCC3)cc2)cc1C(F)(F)F [Compound 33, (2R,3S)-2-(4-(cyclopentylamino)phenyl)-N-(4-methyl-3-(trifluoromethyl)phenyl)-1-(naphthalen-1-ylsulfonyl)piperidine-3-carboxamide] | 2 to 5 | 2 to 10
4 | Cc1ccc(NC(=O)[C@H]2CCCN(S(=O)(=O)c3c(F)cccc3F)[C@H]2c2ccc(NC3CCCC3)cc2)cc1C(F)(F)F [Compound 19, (2R,3S)-2-(4-(cyclopentylamino)phenyl)-1-((2,6-difluorophenyl)sulfonyl)-N-(4-methyl-3-(trifluoromethyl)phenyl)piperidine-3-carboxamide] | 2 to 5 | 2 to 10
5 | Cc1ccc(NC(=O)[C@H]2CCCN(S(=O)(=O)c3c(C)nn(C)c3C)[C@H]2c2ccc(NC3CCCC3)cc2)cc1C(F)(F)F [Compound 38, (2R,3S)-2-(4-(cyclopentylamino)phenyl)-N-(4-methyl-3-(trifluoromethyl)phenyl)-1-((1,3,5-trimethyl-1H-pyrazol-4-yl)sulfonyl)piperidine-3-carboxamide] | 2 to 5 | > 10
6 | Cc1ccc(NC(=O)[C@H]2CCCN(S(=O)(=O)c3ccccc3S(C)(=O)=O)[C@H]2c2ccc(NC3CCCC3)cc2)cc1C(F)(F)F [Compound 29, (2R,3S)-2-(4-(cyclopentylamino)phenyl)-N-(4-methyl-3-(trifluoromethyl)phenyl)-1-((2-(methylsulfonyl)phenyl)sulfonyl)piperidine-3-carboxamide] | 2 to 5 | 2 to 10
7 | Cc1ccc(NC(=O)[C@H]2CCCN(S(=O)(=O)c3ccccc3C(F)(F)F)[C@H]2c2ccc(NC3CCCC3)cc2)cc1C(F)(F)F [Compound 28, (2R,3S)-2-(4-(cyclopentylamino)phenyl)-N-(4-methyl-3-(trifluoromethyl)phenyl)-1-((2-(trifluoromethyl)phenyl)sulfonyl)piperidine-3-carboxamide] | 2 to 5 | 2 to 10
8 | Cc1cccc(F)c1C(=O)N1C2CCC[C@@H]2C[C@H](C(=O)Nc2cccc(Cl)c2)[C@@H]1c1ccc(NC2CCCC2)cc1 (relative stereo) [Compound 55, cis-N-(3-chlorophenyl)-2-(4-(cyclopentylamino)phenyl)-1-(2-fluoro-6-methylbenzoyl)octahydro-1H-cyclopenta[b]pyridine-3-carboxamide] | 0.05 to 0.5 | 0.5 to 2
9 | Cc1ccc(NC(=O)C2C[C@@H]3CCC[C@@H]3N(C(=O)c3c(C)cccc3F)C2c2ccc(NC3CCCC3)cc2)cc1P(C)(C)=O (relative stereo) [Compound 76, cis-2-(4-(cyclopentylamino)phenyl)-N-(3-(dimethylphosphoryl)-4-methylphenyl)-1-(2-fluoro-6-methylbenzoyl)octahydro-1H-cyclopenta[b]pyridine-3-carboxamide] | 2 to 5 | 2 to 10
10 | Cc1ccc(NC(=O)C2C[C@H]3CCC[C@H]3N(C(=O)c3cn(C)cn3)C2c2ccc(NC3CCCC3)cc2)cc1C(F)(F)F (relative stereo) [Compound 113, cis-2-(4-(cyclopentylamino)phenyl)-1-(1-methyl-1H-imidazole-4-carbonyl)-N-(4-methyl-3-(trifluoromethyl)phenyl)octahydro-1H-cyclopenta[b]pyridine-3-carboxamide] | 2 to 5 | > 10
11 | Cc1cccc(F)c1C(=O)N1[C@@H]2CCC[C@@H]2C[C@H](C(=O)Nc2ccc3cnn(C)c3c2)[C@@H]1c1ccc(NC2CCCC2)cc1 [Compound 50, (2R,3S,4aR,7aR)-2-(4-(cyclopentylamino)phenyl)-1-(2-fluoro-6-methylbenzoyl)-N-(1-methyl-1H-indazol-6-yl)octahydro-1H-cyclopenta[b]pyridine-3-carboxamide] | < 0.05 | 0.5 to 2
12 | Cc1cccc(F)c1C(=O)N1C2CCC[C@@H]2C[C@H](C(=O)Nc2ccnc(C(F)(F)F)c2)[C@@H]1c1ccc(NC2CCCC2)cc1 (relative stereo) [Compound 79, cis-2-(4-(cyclopentylamino)phenyl)-1-(2-fluoro-6-methylbenzoyl)-N-(2-(trifluoromethyl)pyridin-4-yl)octahydro-1H-cyclopenta[b]pyridine-3-carboxamide] | 2 to 5 | 2 to 10

Results, then the compound that gave them:

Row | IC50 [1] [µM] | IC50 (C5aR) [µM] | Structure (SMILES)
13 | 0.5 to 2 | > 10 | Cc1ccc(NC(=O)[C@H]2CCCN(S(=O)(=O)c3ccccc3F)[C@H]2c2ccc(NC3CCCC3)cc2)cc1C(F)(F)F [Compound 25, (2R,3S)-2-(4-(cyclopentylamino)phenyl)-1-((2-fluorophenyl)sulfonyl)-N-(4-methyl-3-(trifluoromethyl)phenyl)piperidine-3-carboxamide]
14 | 2 to 5 | 2 to 10 | Cc1ccc(NC(=O)[C@H]2CCCN(S(=O)(=O)c3ccccc3C#N)[C@H]2c2ccc(NC3CCCC3)cc2)cc1C(F)(F)F [Compound 30, (2R,3S)-1-((2-cyanophenyl)sulfonyl)-2-(4-(cyclopentylamino)phenyl)-N-(4-methyl-3-(trifluoromethyl)phenyl)piperidine-3-carboxamide]
15 | 2 to 5 | 2 to 10 | COc1ccccc1S(=O)(=O)N1CCC[C@H](C(=O)Nc2ccc(C)c(C(F)(F)F)c2)[C@@H]1c1ccc(NC2CCCC2)cc1 [Compound 23, (2R,3S)-2-(4-(cyclopentylamino)phenyl)-1-((2-methoxyphenyl)sulfonyl)-N-(4-methyl-3-(trifluoromethyl)phenyl)piperidine-3-carboxamide]
16 | 2 to 5 | 0.05 to 0.5 | Cc1cccc(F)c1C(=O)N1[C@@H]2CCC[C@@H]2C[C@H](C(=O)Nc2ccc(Cl)c(C(F)(F)F)c2)[C@@H]1c1ccc(NC2CCCC2)cc1 (racemic) [Compound 60, cis-N-(4-chloro-3-(trifluoromethyl)phenyl)-2-(4-(cyclopentylamino)phenyl)-1-(2-fluoro-6-methylbenzoyl)octahydro-1H-cyclopenta[b]pyridine-3-carboxamide]
17 | 2 to 5 | > 10 | Cc1ccc(NC(=O)[C@H]2CCCN(S(=O)(=O)c3cccnc3)[C@H]2c2ccc(NC3CCCC3)cc2)cc1C(F)(F)F [Compound 35, (2R,3S)-2-(4-(cyclopentylamino)phenyl)-N-(4-methyl-3-(trifluoromethyl)phenyl)-1-(pyridin-3-ylsulfonyl)piperidine-3-carboxamide]
